Results as given in patent publication US20040037843A1, “Inducing cellular immune responses to prostate cancer antigens using peptide and nucleic acid compositions” (priority 2003, published 2004).

Test system: .221A2.1 peptide-loaded target cells and cells expressing endogenous antigen
Assay: Primary in vitro CTL induction with peptide-pulsed DC, CTL lytic activity by 51Cr release
Format: cell-based, human
Details: immunogenicity, positive/tested; for A2 peptide: CTL recognition of the peptide; for A2 native: CTL recognition of native (wild-type) target
Experimental: Testing was performed using the following methodology:
Cells that express an antigen of interest, or transfectants comprising the gene encoding the antigen of interest, can be used as target cells to test the ability of peptide-specific CTLs to recognize endogenous antigen.
The monocytes are purified by plating 10×10^6 PBMC/well in a 6-well plate. After 2 hours at 37° C., the non-adherent cells are removed by gently shaking the plates and aspirating the supernatants. The wells are washed a total of three times with 3 ml RPMI to remove most of the non-adherent and loosely adherent cells. Three ml of complete medium containing 50 ng/ml of GM-CSF and 1,000 U/ml of IL-4 are then added to each well. TNFα is added to the DCs on day 6 at 75 ng/ml and the cells are used for CTL induction cultures on day 7.
Induction of CTL with DC and Peptide: CD8+ T-cells are isolated by positive selection with Dynal imnmunomagnetic beads (Dynabeads® M-450) and the detacha-bead® reagent. Typically about 200-250×10^6 PBMC are processed to obtain 24×10^6 CD8^+T-cells (enough for a 48-well plate culture). Briefly, the PBMCs are thawed in RPMI with 30 μg/ml DNAse, washed once with PBS containing 1% human AB serum and resuspended in PBS/1% AB serum at a concentration of 20×10^6 cells/ml. The magnetic beads are washed 3 times with PBS/AB serum, added to the cells (140 μl beads/20×10^6 cells) and incubated for 1 hour at 4° C. with continuous mixing. The beads and cells are washed 4× with PBS/AB serum to remove the nonadherent cells and resuspended at 100×10^6 cells/ml (based on the original cell number) in PBS/AB serum containing 100 μl/ml detacha-bead® reagent and 30 μg/ml DNAse. The mixture is incubated for 1 hour at room temperature with continuous mixing. The beads are washed again with PBS/AB/DNAse to collect the CD8+ T-cells. The DC are collected and centrifuged at 1300 rpm for 5-7 minutes, washed once with PBS with 1% BSA, counted and pulsed with 40 μg/ml of peptide at a cell concentration of 1-2×10^6/ml in the presence of 3 μg/ml β2-microglobulin for 4 hours at 20° C. The DC are then irradiated (4,200 rads), washed 1 time with medium and counted again.
Setting up induction cultures: 0.25 ml cytokine-generated DC (@1×10^5 cells/ml) are co-cultured with 0.25 ml of CD8+ T-cells (@2×10^6 cell/ml) in each well of a 48-well plate in the presence of 10 ng/ml of IL-7. Recombinant human IL10 is added the next day at a final concentration of 10 ng/ml and rhuman IL2 is added 48 hours later at 10 IU/mL.
Restimulation of the induction cultures with peptide-pulsed adherent cells: Seven and fourteen days after the primary induction the cells are restimulated with peptide-pulsed adherent cells. The PBMCS are thawed and washed twice with RPMI and DNAse. The cells are resuspended at 5×10^6 cells/ml and irradiated at ˜4200 rads. The PBMCs are plated at 2×10^6 in 0.5 ml complete medium per well and incubated for 2 hours at 37° C. The plates are washed twice with RPMI by tapping the plate gently to remove the nonadherent cells and the adherent cells pulsed with 10 μg/ml of peptide in the presence of 3 μg/ml β2 microglobulin in 0.25 ml RPMI/5% AB per well for 2 hours at 37° C. Peptide solution from each well is aspirated and the wells are washed once with RPMI. Most of the media is aspirated from the induction cultures (CD8+ cells) and brought to 0.5 ml with fresh media. The cells are then transferred to the wells containing the peptide-pulsed adherent cells. Twenty four hours later rhuman IL10 is added at a final concentration of 10 ng/ml and rhuman IL2 is added the next day and again 2-3 days later at 50 IU/ml (Tsai et al., Critical Reviews in Immunology 18(1-2):65-75, 1998). Seven days later the cultures are assayed for CTL activity in a ^51Cr release assay. In some experiments the cultures are assayed for peptide-specific recognition in the in situ IFNγ ELISA at the time of the second restimulation followed by assay of endogenous recognition 7 days later. […]

Row | SMILES | A2 peptide | A2 native
1 | CC(C)C[C@H](NC(=O)[C@H](CC(=O)O)NC(=O)[C@@H](NC(=O)[C@H](CS)NC(=O)[C@H](CCC(N)=O)NC(=O)[C@H](CC(C)C)NC(=O)[C@@H](N)CCCCN)C(C)C)C(=O)N[C@@H](Cc1c[nH]cn1)C(=O)N[C@H](C(=O)O)C(C)C [Peptide 990.01] | 1/2 | 
2 | CC[C@H](C)[C@H](N)C(=O)N[C@@H](CC(C)C)C(=O)N[C@@H](CC(C)C)C(=O)N[C@@H](Cc1c[nH]c2ccccc12)C(=O)N[C@@H](CCC(N)=O)C(=O)N1CCC[C@H]1C(=O)N[C@H](C(=O)N1CCC[C@H]1C(=O)N[C@H](C(=O)O)C(C)C)[C@@H](C)CC [Peptide 1044.04] | 5/5 | 
3 | CC[C@H](C)[C@H](N)C(=O)N[C@@H](CCSC)C(=O)N[C@@H](Cc1ccc(O)cc1)C(=O)N[C@@H](CO)C(=O)N[C@@H](C)C(=O)N[C@@H](Cc1c[nH]cn1)C(=O)N[C@@H](CC(=O)O)C(=O)N[C@H](C(=O)N[C@H](C(=O)N[C@H](C(=O)O)C(C)C)[C@@H](C)O)[C@@H](C)O [Peptide 1097.05] | 3/3 | 
4 | CC(C)C[C@H](NC(=O)[C@H](Cc1c[nH]c2ccccc12)NC(=O)[C@H](Cc1ccccc1)NC(=O)[C@H](Cc1ccccc1)NC(=O)[C@H](CC(C)C)NC(=O)[C@@H](N)CC(C)C)C(=O)N[C@@H](CC(=O)O)C(=O)N[C@@H](CCCNC(=N)N)C(=O)N[C@@H](CO)C(=O)N[C@H](C(=O)O)C(C)C [Peptide 1097.09] | 3/3 | 
5 | CC(C)C[C@H](NC(=O)[C@H](CCC(=O)O)NC(=O)[C@H](CCCCN)NC(=O)[C@H](C)NC(=O)[C@H](CC(C)C)NC(=O)[C@@H](N)C(C)C)C(=O)N[C@@H](CCCCN)C(=O)N[C@@H](Cc1ccccc1)C(=O)N[C@H](C(=O)O)C(C)C [Peptide 1097.17] | 1/3 | 
6 | CC(C)C[C@H](NC(=O)[C@H](CCCCN)NC(=O)[C@H](CCCCN)NC(=O)[C@@H]1CCCN1C(=O)[C@@H](NC(=O)[C@H](CC(C)C)NC(=O)[C@@H](N)Cc1ccccc1)[C@@H](C)O)C(=O)N[C@@H](CCC(N)=O)C(=O)N[C@@H](CS)C(=O)N[C@H](C(=O)O)C(C)C [Peptide 1098.02] | 3/4 | 
7 | CSCC[C@H](NC(=O)[C@H](CC(C)C)NC(=O)[C@H](CCC(N)=O)NC(=O)[C@H](CC(=O)O)NC(=O)[C@H](CC(N)=O)NC(=O)[C@H](CCSC)NC(=O)[C@@H](N)CCSC)C(=O)N[C@@H](Cc1ccccc1)C(=O)N[C@@H](CC(C)C)C(=O)O [Peptide 1126.01] | 2/2 | 
8 | CSCC[C@H](NC(=O)[C@H](CC(C)C)NC(=O)[C@H](CCC(N)=O)NC(=O)[C@H](CC(=O)O)NC(=O)[C@H](CC(N)=O)NC(=O)[C@H](CCSC)NC(=O)[C@H](CCSC)NC(=O)[C@@H](N)CCCNC(=N)N)C(=O)N[C@@H](Cc1ccccc1)C(=O)N[C@@H](CC(C)C)C(=O)O [Peptide 1126.06] | 1/1 | 
9 | CC(C)C[C@H](NC(=O)[C@H](CC(C)C)NC(=O)[C@H](Cc1ccccc1)NC(=O)[C@H](Cc1ccccc1)NC(=O)CNC(=O)CNC(=O)[C@H](C)NC(=O)[C@H](CC(C)C)NC(=O)[C@@H](N)C(C)C)C(=O)O [Peptide 1126.10] | 1/2 | 
10 | CSCC[C@H](NC(=O)[C@@H](N)CC(C)C)C(=O)N[C@@H](Cc1ccc(O)cc1)C(=O)N[C@@H](CO)C(=O)N[C@@H](CC(C)C)C(=O)N[C@H](C(=O)N[C@@H](Cc1c[nH]cn1)C(=O)N[C@@H](CC(N)=O)C(=O)N[C@@H](CC(C)C)C(=O)O)C(C)C [Peptide 1126.14] | 3/3 | 
11 | CC[C@H](C)[C@H](NC(=O)[C@H](Cc1ccc(O)cc1)NC(=O)[C@H](C)NC(=O)[C@@H](NC(=O)CNC(=O)[C@H](CCCNC(=N)N)NC(=O)[C@H](CCC(=O)O)NC(=O)[C@H](CCC(N)=O)NC(=O)[C@H](CC(C)C)NC(=O)[C@@H](N)CC(C)C)C(C)C)C(=O)O [Peptide 1129.01] | 3/3 | 
12 | CSCC[C@H](NC(=O)CN)C(=O)N1CCC[C@H]1C(=O)N[C@@H](CCC(=O)O)C(=O)NCC(=O)N[C@@H](CC(=O)O)C(=O)N[C@@H](CC(C)C)C(=O)N[C@H](C(=O)N[C@@H](Cc1ccc(O)cc1)C(=O)N[C@H](C(=O)O)C(C)C)C(C)C [Peptide 1129.04] | 0/1 | 
13 | CC[C@H](C)[C@H](NC(=O)[C@H](CC(=O)O)NC(=O)[C@H](Cc1ccccc1)NC(=O)[C@H](CC(C)C)NC(=O)[C@H](C)N)C(=O)N[C@@H](CCC(=O)O)C(=O)N[C@@H](CO)C(=O)N[C@@H](CCCCN)C(=O)N[C@H](C(=O)O)C(C)C [Peptide 1129.08] | 2/2 | 
14 | CC[C@H](C)[C@H](NC(=O)[C@@H]1CCCN1C(=O)[C@H](Cc1c[nH]cn1)NC(=O)[C@@H](NC(=O)[C@@H]1CCCN1C(=O)[C@@H](NC(=O)[C@H](CO)NC(=O)[C@@H]1CCCN1C(=O)[C@H](CC(C)C)NC(=O)CN)[C@@H](C)CC)C(C)C)C(=O)O [Peptide 1129.10] | 2/4 | 
15 | CSCC[C@H](NC(=O)[C@H](C)NC(=O)[C@H](CO)NC(=O)[C@H](CCSC)NC(=O)[C@H](CC(C)C)NC(=O)[C@@H](N)[C@@H](C)O)C(=O)N[C@H](C(=O)N[C@@H](CC(N)=O)C(=O)N[C@@H](CC(C)C)C(=O)O)[C@@H](C)O [Peptide 1177.01] | 2/2 | 
16 | CSCC[C@H](N)C(=O)N[C@@H](CC(C)C)C(=O)N[C@@H](CC(C)C)C(=O)N[C@@H](CCCNC(=N)N)C(=O)N[C@@H](CC(C)C)C(=O)N[C@@H](CO)C(=O)N[C@@H](CCC(=O)O)C(=O)N1CCC[C@H]1C(=O)N[C@H](C(=O)O)C(C)C [Peptide 1389.10] | 3/3 | 1/3
17 | CC(C)C[C@H](NC(=O)[C@H](C)N)C(=O)NCC(=O)N[C@H](C(=O)N[C@H](C(=O)N[C@@H](CS)C(=O)N[C@@H](Cc1ccc(O)cc1)C(=O)N[C@H](C(=O)O)C(C)C)[C@@H](C)O)[C@@H](C)O [Peptide 1389.14] | 2/3 | 1/3
18 | CC(C)C[C@H](NC(=O)[C@H](Cc1ccccc1)NC(=O)[C@H](Cc1ccccc1)NC(=O)CNC(=O)CNC(=O)[C@H](C)NC(=O)[C@H](CC(C)C)NC(=O)[C@@H](N)C(C)C)C(=O)N[C@H](C(=O)O)C(C)C [Peptide 1389.20] | 1/2 | 1/2
19 | CC[C@H](C)[C@H](NC(=O)[C@H](CO)NC(=O)[C@@H]1CCCN1C(=O)[C@H](CC(C)C)NC(=O)CN)C(=O)N1CCC[C@H]1C(=O)N[C@H](C(=O)N[C@@H](Cc1c[nH]cn1)C(=O)N1CCC[C@H]1C(=O)N[C@H](C(=O)O)C(C)C)C(C)C [Peptide 1389.24] | 4/4 | 3/4
20 | CC[C@H](C)[C@H](NC(=O)[C@H](CO)NC(=O)[C@H](CC(C)C)NC(=O)[C@H](CC(C)C)NC(=O)[C@@H](N)CC(C)C)C(=O)N[C@@H](C)C(=O)N[C@@H](CC(C)C)C(=O)N[C@@H](CO)C(=O)N[C@H](C(=O)O)C(C)C [Peptide 1418.13] | 2/2 | 2/2
21 | CC(C)C[C@H](NC(=O)[C@H](Cc1c[nH]c2ccccc12)NC(=O)[C@H](Cc1ccccc1)NC(=O)[C@H](Cc1ccccc1)NC(=O)[C@@H](NC(=O)[C@@H](N)CC(C)C)[C@@H](C)O)C(=O)N[C@@H](CC(=O)O)C(=O)N[C@@H](CCCNC(=N)N)C(=O)N[C@@H](CO)C(=O)N[C@H](C(=O)O)C(C)C [Peptide 1418.23] | 3/3 | 2/3
22 | CC[C@H](C)[C@H](N)C(=O)N[C@H](C(=O)N[C@@H](CC(C)C)C(=O)N[C@@H](Cc1c[nH]c2ccccc12)C(=O)N[C@@H](CCC(N)=O)C(=O)N1CCC[C@H]1C(=O)N[C@H](C(=O)N1CCC[C@H]1C(=O)N[C@H](C(=O)O)C(C)C)[C@@H](C)CC)[C@@H](C)O [Peptide 1418.25] | 3/3 | 2/3
